# Experimental data taken from PubChem BioAssay (NCI).
#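 Step 1: Grow cells in 96-well plates. Step 2: Expose to compound for 48 hours at 5 concentrations. Step 3: Interpolate endpoints linearly; if unreached, use highest concentration. Definition used: TGI = concentration required for complete inhibition of growth.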
# Tests used:
# Assay in all cases: NCI tumour cell line growth inhibition, 48 h
# K-562 leukemia = tested on: K-562 leukemia
# SF-539 CNS = tested on: SF-539 CNS
# UO-31 renal = tested on: UO-31 renal
# NCI/ADR-RES ovarian = tested on: NCI/ADR-RES ovarian
# U251 CNS = tested on: U251 CNS
# DMS 114 small cell lung = tested on: DMS 114 small cell lung
# HOP-18 NSCLC = tested on: HOP-18 NSCLC
# IGROV1 ovarian = tested on: IGROV1 ovarian
# MALME-3M melanoma = tested on: MALME-3M melanoma
# XF 498 CNS = tested on: XF 498 CNS
# DMS 273 small cell lung = tested on: DMS 273 small cell lung
# SW-620 colon = tested on: SW-620 colon
# CAKI-1 renal = tested on: CAKI-1 renal
# COLO 205 colon = tested on: COLO 205 colon
# OVCAR-5 ovarian = tested on: OVCAR-5 ovarian
# MCF7 breast = tested on: MCF7 breast
# RPMI-8226 leukemia = tested on: RPMI-8226 leukemia
# HCC-2998 colon = tested on: HCC-2998 colon
# HL-60(TB) leukemia = tested on: HL-60(TB) leukemia
# HOP-92 NSCLC = tested on: HOP-92 NSCLC
# OVCAR-3 ovarian = tested on: OVCAR-3 ovarian
# UACC-62 melanoma = tested on: UACC-62 melanoma
# NCI-H226 lung = tested on: NCI-H226 lung
# OVCAR-4 ovarian = tested on: OVCAR-4 ovarian
# SK-MEL-2 melanoma = tested on: SK-MEL-2 melanoma
# SNB-78 CNS = tested on: SNB-78 CNS
# KM20L2 colon = tested on: KM20L2 colon
# DLD-1 colon = tested on: DLD-1 colon
# KM12 colon = tested on: KM12 colon
# M19-MEL melanoma = tested on: M19-MEL melanoma
# P388/ADR leukemia = tested on: P388/ADR leukemia
# SK-MEL-5 melanoma = tested on: SK-MEL-5 melanoma
# LOX IMVI melanoma = tested on: LOX IMVI melanoma
# HT29 colon = tested on: HT29 colon
# SF-268 CNS = tested on: SF-268 CNS
# EKVX NSCLC = tested on: EKVX NSCLC
# HCT-116 colon = tested on: HCT-116 colon
# SK-OV-3 ovarian = tested on: SK-OV-3 ovarian
# MOLT-4 leukemia = tested on: MOLT-4 leukemia
# HOP-62 NSCLC = tested on: HOP-62 NSCLC
# CCRF-CEM leukemia = tested on: CCRF-CEM leukemia
# NCI-H23 lung = tested on: NCI-H23 lung
# NCI-H460 lung = tested on: NCI-H460 lung
# P388 leukemia = tested on: P388 leukemia
# RXF 393 renal = tested on: RXF 393 renal
# SK-MEL-28 melanoma = tested on: SK-MEL-28 melanoma
# HCT-15 colon = tested on: HCT-15 colon
# UACC-257 melanoma = tested on: UACC-257 melanoma
# SNB-19 CNS = tested on: SNB-19 CNS
# SF-295 CNS = tested on: SF-295 CNS
# A498 renal = tested on: A498 renal
# SNB-75 CNS = tested on: SNB-75 CNS
# SN12C renal = tested on: SN12C renal
# NCI-H522 lung = tested on: NCI-H522 lung
# OVCAR-8 ovarian = tested on: OVCAR-8 ovarian
compound,measurement,setting,value
CN(C)CCNc1c([N+](=O)[O-])cc2c3c(cccc13)C(=O)N(CCN(C)C)C2=O,TGI,K-562 leukemia,4.51 µM
same,TGI,SF-539 CNS,8.29 µM
same,TGI,UO-31 renal,4.2 µM
same,TGI,NCI/ADR-RES ovarian,9.32 µM
same,TGI,U251 CNS,6.44 µM
same,TGI,DMS 114 small cell lung,3.1 µM
same,TGI,HOP-18 NSCLC,4.6 µM
same,TGI,IGROV1 ovarian,8.17 µM
same,TGI,MALME-3M melanoma,2.28 µM
same,TGI,XF 498 CNS,3.92 µM
same,TGI,DMS 273 small cell lung,2.95 µM
same,TGI,SW-620 colon,5.59 µM
same,TGI,CAKI-1 renal,6.6 µM
same,TGI,COLO 205 colon,2.71 µM
same,TGI,OVCAR-5 ovarian,4.96 µM
same,TGI,MCF7 breast,> 20.4 µM
same,TGI,RPMI-8226 leukemia,11.6 µM
same,TGI,HCC-2998 colon,2.72 µM
same,TGI,HL-60(TB) leukemia,5.53 µM
same,TGI,HOP-92 NSCLC,2.36 µM
same,TGI,OVCAR-3 ovarian,5.44 µM
same,TGI,UACC-62 melanoma,3.35 µM
same,TGI,NCI-H226 lung,> 100 µM
same,TGI,OVCAR-4 ovarian,5.84 µM
same,TGI,SK-MEL-2 melanoma,3.39 µM
same,TGI,SNB-78 CNS,7.21 µM
same,TGI,KM20L2 colon,5.87 µM
same,TGI,DLD-1 colon,6.02 µM
same,TGI,KM12 colon,> 26.4 µM
same,TGI,M19-MEL melanoma,3.28 µM
same,TGI,P388/ADR leukemia,4.9 µM
same,TGI,SK-MEL-5 melanoma,4.32 µM
same,TGI,LOX IMVI melanoma,4.01 µM
same,TGI,HT29 colon,5.03 µM
same,TGI,SF-268 CNS,4.6 µM
same,TGI,EKVX NSCLC,4.37 µM
same,TGI,HCT-116 colon,15.3 µM
same,TGI,SK-OV-3 ovarian,7.51 µM
same,TGI,MOLT-4 leukemia,3.09 µM
same,TGI,HOP-62 NSCLC,8.49 µM
same,TGI,CCRF-CEM leukemia,> 100 µM
same,TGI,NCI-H23 lung,3.89 µM
same,TGI,NCI-H460 lung,2.26 µM
same,TGI,P388 leukemia,2.62 µM
same,TGI,RXF 393 renal,3.69 µM
same,TGI,SK-MEL-28 melanoma,12.9 µM
same,TGI,HCT-15 colon,5.54 µM
same,TGI,UACC-257 melanoma,4.71 µM
same,TGI,SNB-19 CNS,8.33 µM
same,TGI,SF-295 CNS,6.69 µM
same,TGI,A498 renal,4.34 µM
same,TGI,SNB-75 CNS,4.18 µM
same,TGI,SN12C renal,9.28 µM
same,TGI,NCI-H522 lung,2.79 µM
same,TGI,OVCAR-8 ovarian,3.27 µM
